Laboratory results published in US8501911B2, “Methods of reducing inflammation and mucus hypersecretion” (Biomarck Pharmaceuticals, Ltd, priority 1999, dated 2013).
Several values for one entry are separate records, joined by “and”; a condition that tells them apart may be missing. Equal entries are not always repeated. Entries after “also recorded” stand apart in the source; their conditions may differ. Residues, ends and D or L forms follow the SMILES beside them. *: point of attachment. Myristoyl = CCCCCCCCCCCCCC(=O)*

Experiments:
MARCKS = MARCKS phosphorylation in NHBE cells (radiolabeled immunoprecipitation assay); format: cell-based, human
Protocol: NHBE cells were labeled with [^32 P]orthophosphate and then exposed to the reagents: (a) Rp-8-Br-PET-cGMP (100 μM); (b) okadaic acid (500 nM); (c) 8-Br-cGMP (1 μM); and (d) PMA (100 nM). MARCKS phosphorylation in response to the treatments was evaluated by immunoprecipitation assay.
To reveal molecular events by which MARCKS links kinase activation to mucin secretion, phosphorylation of MARCKS in response to PKC/PKG activation was investigated in depth, and results are presented as Results-I-4A. […] Once phosphorylated, MARCKS was translocated from the plasma membrane to the cytoplasm. More specifically, the activation of PKC results in MARCKS phosphorylation in NHBE cells. Cells were labeled with [^32 P]orthophosphate for 2 h and then exposed to the stimulatory and/or inhibitory reagents (see below). MARCKS phosphorylation in response to the treatments was evaluated by immunoprecipitation with the following specifics, designated Results-I-4A:
[^32P]phosphate, cells were preincubated for 2 h in phosphate-free Dulbecco's modified Eagle's medium containing 0.2% bovine serum albumin and then labeled with 0.1 mCi/ml [^32 P]orthophosphate (9000 Ci/mmol, PerkinElmer Life Sciences) for 2 h. For labeling with [^3H]myristic acid or ^3H-amino acids, cells were incubated overnight in medium containing 50 μCi/ml [^3H]myristic acid (49 Ci/mmol, PerkinElmer Life Sciences) or 0.2 mCi/ml [^3H]leucine (159 Ci/mmol, PerkinElmer Life Sciences) plus 0.4 mCi/ml [^3H]proline (100 Ci/mmol, PerkinElmer Life Sciences). Following labeling, cells were exposed to stimulatory reagents for 5 min. When an inhibitor was used, cells were preincubated with the inhibitor for 15 min prior to stimulation. At the end of the treatments, cells were lysed in a buffer containing 50 mM Tris-HCl (pH 7.5), 150 mM NaCl, 1 mM EDTA, 10% glycerol, 1% Nonidet P-40, 1 mM phenylmethylsulfonyl fluoride, 1 mM benzamidine, 10 μg/ml pepstatin A, and 10 μg/ml leupeptin. Trichloroacetic acid precipitation and scintillation counting may determine the radiolabeling efficiency in each culture. Immunoprecipitation of MARCKS protein was carried out according to the method of Spizz and Blackshear using cell lysates containing equal counts/min. Spizz et al., J. Biol. Chem. 271, 553-562 (1996). Precipitated proteins were resolved by 8% SDS-polyacrylamide gel electrophoresis and visualized by autoradiography. Anti-human MARCKS antibody (2F12) and nonimmune control antibody (6F6) were used in this assay.
Phosphorylation of MARCKS by PMA was attenuated by Calphostin C (500 nM). NHBE cells also contained substantial amounts of cGMP-dependent protein kinase type 1α (PKG-1α) activity, which was localized to the cytosolic fraction. […] In addition, the phosphorylation of MARCKS induced by PMA was reversed by incubation with 8-Br-cGMP (10 μM).

NHBE cells = assay: Mucin secretion from NHBE cells exposed to kinase activators/reagents alone (ELISA); format: cell-based, human; settings: for Mucin secretion as percent of control: 15 min
Protocol: To determine the potential role of PKC and/or PKG in the mucin secretory process, NHBE cells were exposed to the following two specific protein kinase activators: the phorbol ester, phorbol 12-myristate 13-acetate (PMA), for activation of PKC, and the nonhydrolyzable cGMP analogue, 8-Br-cGMP, for activation of PKG.
NHBE Cell Culture—Expansion, cryopreservation, and culture of NHBE cells in the air/liquid interface were performed as described previously. See, Krunkosky et al. Briefly, NHBE cells (Clonetics, San Diego, Calif.) were seeded in vented T75 tissue culture flasks (500 cells/cm^2) and cultured until cells reached 75-80% confluence. Cells were then dissociated by trypsin/EDTA and frozen as passage-2. Air/liquid interface culture was initiated by seeding passage-2 cells (2×10^4 cells/cm^2) in […]® clear culture inserts (Costar, Cambridge, Mass.) that were thinly coated with rat tail collagen, type 1 (Collaborative Biomedical, Bedford, Mass.). Cells were cultured submerged in medium in a humidified 95% air, 5% CO2 environment for 5-7 days until nearly confluent. At that time, the air/liquid interface was created by removing the apical medium and feeding cells basalaterally. Medium was renewed daily thereafter. Cells were cultured for an additional 14 days to allow for full differentiation.
Measurement of Mucin Secretion by ELISA—Before collection of “base line” and “test” mucin samples, the accumulated mucus at the apical surface of the cells was removed by washing with phosphate-buffered saline, pH 7.2. To collect the base-line secretion, cells were incubated with medium alone, and secreted mucin in the apical medium was collected and reserved. Cells were rested for 24 h and then exposed to medium containing the selected stimulatory and/or inhibitory reagents (or appropriate controls), after which secreted mucin was collected and reserved as the test sample. Incubation times for the base line and the test were the same but varied depending on the test reagent utilized. Both base line and test secretions were analyzed by ELISA using an antibody capture method as known in the art. See, e.g., Harlow et al., Antibodies: A Laboratory Manual, pp. 570-573, Cold Spring Harbor Laboratory, Cold Spring Harbor, N.Y. (1988). The primary antibody for this assay was 17Q2 (Babco, Richmond, Calif.), a monoclonal antibody that reacts specifically with a carbohydrate epitope on human airway mucins. […] Wright et al., Am. J. Physiol. 271, L854-L861 (1996). Levels of mucin secretion were reported as percentage of the medium control.
Mucus secreted from the airway epithelial cells in vitro after stimulation by activators was assessed using an ELISA (antibody capture method) (E. Harlow, D. Lane. “Antibodies: A Laboratory Manual.” New York: Cold Spring Harbor Laboratory Press, 1988), wherein the collected mucus is bound directly to the ELISA plate. Mucus was detected using an antibody raised against monkey airway mucus (Lin et al. Am J Respir Cell Mol Biol 1:41, 1989).

[1] = system: MARCKS-related mucus secretion; assay: Inhibition of MARCKS-related mucus (mucin) secretion, Table 1; format: cell-based; settings: at 100 μM of test peptide
[2] = inhibitor 500 nM + 100 nM PMA + 1 μM 8-Br-cGMP

For `Nc1nc2c(nc(Br)n2[C@@H]2O[C@@H]3COP(=O)(O)O[C@H]3[C@H]2O)c(=O)[nH]1` [8-Br-cGMP], the “Effect on PMA-induced phosphorylation of MARCKS” value (MARCKS; 8-Br-cGMP 10 μM (Example 6)) was “reversed”, the “MARCKS phosphorylation (band in immunoprecipitation assay)” value (MARCKS; reagent 1 μM alone) was “faint band; also recorded: no band; also recorded: only a trace amount” and the “Mucin secretion as percent of control” value (NHBE cells; reagent 1 μM alone) was 109%.

For `CCCCCCCCCCCCCC(=O)NCC(=O)N[C@@H](C)C(=O)N[C@@H](CCC(N)=O)C(=O)N[C@@H](Cc1ccccc1)C(=O)N[C@@H](CO)C(=O)N[C@@H](CCCCN)C(=O)N[C@H](C(=O)N[C@@H](C)C(=O)N[C@@H](C)C(=O)N[C@@H](CCCCN)C(=O)NCC(=O)N[C@@H](CCC(=O)O)C(=O)N[C@@H](C)C(=O)N[C@@H](C)C(=O)N[C@@H](C)C(=O)N[C@@H](CCC(=O)O)C(=O)N[C@@H](CCCNC(=N)N)C(=O)N1CCC[C@H]1C(=O)NCC(=O)N[C@@H](CCC(=O)O)C(=O)N[C@@H](C)C(=O)N[C@@H](C)C(=O)N[C@H](C(=O)N[C@@H](C)C(=O)O)C(C)C)[C@@H](C)O` [MANS peptide] (Myristoyl-GAQFSKTAAKGEAAAERPGEAAVA-OH; C-terminus assumed), the “% Inhibition Mucin” value [1] was 81.5%.

In the case of `CCCCCCCCCCCCCC(=O)O[C@@H]1[C@@H](C)[C@@]2(O)[C@@H](C=C(CO)C[C@]3(O)C(=O)C(C)=C[C@@H]23)[C@@H]2C(C)(C)[C@]12OC(C)=O` [PMA, phorbol 12-myristate 13-acetate], the “Increase in MARCKS phosphorylation” value (MARCKS; PMA 100 nM) is reported as 3-4 fold, the “MARCKS phosphorylation (band in immunoprecipitation assay)” value (MARCKS; reagent 100 nM alone) is reported as “dark band; also recorded: very dark band; also recorded: showed a band; also recorded: strong band; also recorded: phosphorylated” and the “Mucin secretion as percent of control” value (NHBE cells; reagent 100 nM alone) is reported as 123% and 122%. For the same compound, the “Mucin secretion in response to PMA alone” value (NHBE cells; various concentrations and times, up to 1 μM for 2 h) was “did not induce significant mucin secretion”.

For `CCCCCCCCCCCCCC(=O)NCC(=O)N[C@H](C(=O)N[C@@H](C)C(=O)N1CCC[C@H]1C(=O)N[C@@H](C)C(=O)N[C@@H](C)C(=O)N[C@@H](CCC(=O)O)C(=O)NCC(=O)N[C@@H](C)C(=O)NCC(=O)N[C@@H](C)C(=O)N[C@@H](CCC(=O)O)C(=O)N[C@H](C(=O)N[C@@H](CCCCN)C(=O)N[C@@H](CCCNC(=N)N)C(=O)N[C@@H](C)C(=O)N[C@@H](CO)C(=O)N[C@@H](C)C(=O)N[C@@H](CCC(=O)O)C(=O)N[C@@H](C)C(=O)N[C@@H](CCCCN)C(=O)N[C@@H](CCC(N)=O)C(=O)N[C@@H](C)C(=O)N[C@@H](Cc1ccccc1)C(=O)O)C(C)C)[C@@H](C)O` [RNS peptide, reference compound] (Myristoyl-GTAPAAEGAGAEVKRASAEAKQAF-OH; C-terminus assumed), the “% Inhibition Mucin” value [1] was 0%.

In the case of `CCCCCCCCCCCCCC(=O)NCC(=O)N[C@@H](C)C(=O)N[C@@H](CCC(N)=O)C(=O)N[C@@H](Cc1ccccc1)C(=O)N[C@@H](CO)C(=O)N[C@@H](CCCCN)C(=O)N[C@H](C(=O)N[C@@H](C)C(=O)N[C@@H](C)C(=O)N[C@@H](CCCCN)C(=O)NCC(=O)N[C@@H](CCC(=O)O)C(=O)O)[C@@H](C)O` [SEQ ID NO: 13, N-myristoyl-GAQFSKTAAKGE] (Myristoyl-GAQFSKTAAKGE-OH; C-terminus assumed), the “% Inhibition Mucin” value [1] is reported as 77%.

In the case of `CCCCCCCCCCCCCC(=O)NCC(=O)N[C@@H](C)C(=O)N[C@@H](CCC(N)=O)C(=O)N[C@@H](Cc1ccccc1)C(=O)N[C@@H](CO)C(=O)N[C@@H](CCCCN)C(=O)N[C@H](C(=O)N[C@@H](C)C(=O)N[C@@H](C)C(=O)N[C@@H](CCCCN)C(=O)O)[C@@H](C)O` [SEQ ID NO: 15, N-myristoyl-GAQFSKTAAK] (Myristoyl-GAQFSKTAAK-OH; C-terminus assumed), the “% Inhibition Mucin” value [1] is reported as 67.5%.

With `C[C@@](O)(/C=C/[C@H]1CC=CC(=O)O1)[C@@H](C[C@@H](O)\C=C/C=C\C=C\CO)OP(=O)(O)O` [fostriecin] the “Effect on PKG-induced MARCKS dephosphorylation” value (MARCKS; 1-500 nM, with PMA 100 nM + 8-Br-cGMP 1 μM) was “inhibited PKG-induced MARCKS dephosphorylation in a concentration-dependent manner”, the “MARCKS phosphorylation (band in immunoprecipitation assay)” value (MARCKS; [2]) was “strong band” and the “MARCKS phosphorylation (band in immunoprecipitation assay)” value (MARCKS; inhibitor alone, concentration not stated (I-5C lane 9)) was “only a trace amount”.

With `C=C1[C@@H](O)[C@@H]2O[C@]3(CC[C@H](/C=C/[C@@H](C)[C@@H]4CC(C)=C[C@@]5(O[C@H](C[C@@](C)(O)C(=O)O)CC[C@H]5O)O4)O3)CC[C@H]2O[C@@H]1[C@@H](O)C[C@H](C)[C@H]1O[C@@]2(CCCCO2)CC[C@H]1C` [okadaic acid] the “Effect on reversal of MARCKS phosphorylation by 8-Br-cGMP (10 μM)” value (MARCKS; 500 nM (Example 6)) was “inhibited this effect”, the “MARCKS phosphorylation (band in immunoprecipitation assay)” value (MARCKS; inhibitor 500 nM + 100 nM PMA) was “dark band” and the “MARCKS phosphorylation (band in immunoprecipitation assay)” value (MARCKS; [2]) was “dark band”. The “MARCKS phosphorylation (band in immunoprecipitation assay)” value (MARCKS; inhibitor 500 nM + 100 nM PMA + 1 μM 8-Br-cGMP, listed as Okadaic acid) was “showed a band”, the “MARCKS phosphorylation (band in immunoprecipitation assay)” value (MARCKS; inhibitor 500 nM + 100 nM PMA, listed as Okadaic acid) was “showed a band” and the “MARCKS phosphorylation (band in immunoprecipitation assay)” value (MARCKS; inhibitor 500 nM + 1 μM 8-Br-cGMP) was “medium dark band”. The “MARCKS phosphorylation (band in immunoprecipitation assay)” value (MARCKS; inhibitor 500 nM + 1 μM 8-Br-cGMP, listed as Okadaic acid) was “faint band” and the “MARCKS phosphorylation (band in immunoprecipitation assay)” value (MARCKS; inhibitor 500 nM alone) was “faint band”.

With TNF-α the “Mucin secretion level, % of control” value (NHBE cells; TNF-α 10 ng/ml 4 h, no secretagogue) was 109%.
